Assay results taken from PubChem BioAssay AID652169 (The Scripps Research Institute Molecular Screening Center, 2013).
Calls of active or inactive are those of the source. No rule for the calls is given here.

These molecules were tested on MTT cytotoxicity, absorbance 620 nm (assay: cell viability loss, MTT reduction – absorbance, cytotoxicity control for NOD2-RIPK2 interaction inhibitor project, late-stage follow-up (AID 652169)).
`O=[N+]([O-])c1cc(S(=O)(=O)N2CCCCCC2)ccc1F` was tested, and the IC50 was > 10 µM (inactive).
`Cc1ccc(S(=O)(=O)N2CCCCCC2)cc1[N+](=O)[O-]` was tested, and the IC50 was > 10 µM (inactive).
`O=S(=O)(c1ccccc1)N1CCCCCC1` was tested, and the IC50 was > 10 µM (inactive).
In the case of `Cc1nc([N+](=O)[O-])c(Br)n1Cc1ccc(Cl)c(Cl)c1`, the IC50 is reported as > 10 µM (inactive).
`Cc1ccc(C(C[N+](=O)[O-])n2nc(C)cc2C)cc1` (stereo unspecified) was tested, and the IC50 was > 10 µM (inactive).
In the case of `O=S(=O)(c1ccc(F)cc1)N1CCCCCC1`, the IC50 is reported as > 10 µM (inactive).
In the case of `COc1ccc(C(C[N+](=O)[O-])n2nc(C)cc2C)cc1` (stereo unspecified), the IC50 is reported as > 10 µM (inactive).
In the case of `Cc1ncc([N+](=O)[O-])n1Cc1ccc(Cl)c(Cl)c1`, the IC50 is reported as > 10 µM (inactive).
With `O=[N+]([O-])c1cccc(S(=O)(=O)N2CCCCCC2)c1` the IC50 was > 10 µM (inactive).
In the case of `Cc1cc(S(=O)(=O)N2CCCCCC2)ccc1F`, the IC50 is reported as > 10 µM (inactive).
`Cc1nc([N+](=O)[O-])c(Br)n1Cc1ccccc1` was tested, and the IC50 was > 10 µM (inactive).
